Measurements reported in BindingDB's records for doi:10.1074/jbc.M113.510974 (Albert Einstein College of Medicine, 2013).

Columns and labels:
Sulfotransferase 2A1 = molecular target: T1, Sulfotransferase 2A1 (Homo sapiens, UniProt Q06520); assay: Amoxapine and Protriptyline Inhibition Assay; settings: pH 7.5; 2 °C
T1 sequence (Q06520 whole entry): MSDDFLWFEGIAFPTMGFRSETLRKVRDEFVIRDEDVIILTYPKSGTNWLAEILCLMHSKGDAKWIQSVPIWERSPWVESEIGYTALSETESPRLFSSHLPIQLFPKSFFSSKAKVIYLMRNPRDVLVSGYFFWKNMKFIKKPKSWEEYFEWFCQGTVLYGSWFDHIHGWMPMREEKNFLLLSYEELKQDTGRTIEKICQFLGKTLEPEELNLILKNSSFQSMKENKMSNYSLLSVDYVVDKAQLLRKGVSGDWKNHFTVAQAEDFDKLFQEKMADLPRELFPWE
Protocol: (§1) Sulfation of PnP was monitored optically at λ = 415 nm (ε415 = 10.6 mM-1 cm-1 at pH 7.5 [Whittemore et al., Biochemistry, 24:2477-2482).

Sulfotransferase 1A1 = Sulfotransferase 1A1 (Homo sapiens, UniProt P50225); assay: Amoxapine and Protriptyline Inhibition Assay; settings: pH 7.5; 2 °C
Protocol: as §1

Sequence of Sulfotransferase 1A1 (P50225 whole entry): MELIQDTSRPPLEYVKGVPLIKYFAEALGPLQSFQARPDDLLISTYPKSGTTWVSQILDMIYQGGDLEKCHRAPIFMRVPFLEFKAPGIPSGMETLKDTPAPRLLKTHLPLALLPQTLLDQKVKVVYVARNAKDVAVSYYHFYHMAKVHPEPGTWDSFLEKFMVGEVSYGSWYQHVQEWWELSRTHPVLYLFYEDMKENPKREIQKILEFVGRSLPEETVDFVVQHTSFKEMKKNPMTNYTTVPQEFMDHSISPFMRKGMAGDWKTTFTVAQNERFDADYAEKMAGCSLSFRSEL

SMILES | Ki (Sulfotransferase 2A1) | Ki (Sulfotransferase 1A1)
Clc1ccc2c(c1)C(N1CCNCC1)=Nc1ccccc1O2 | 125 µM | 35 µM
CNCCCC1c2ccccc2C=Cc2ccccc21 [3-(5H-dibenzo[a,d][7]annulen-5-yl)-N-methylpropan-1-amine] | 76 µM | 55 µM
